{
  "source": "ChEMBL document CHEMBL1201862",
  "about": "“PubChem BioAssay data set” (2004)",
  "key": {"[1]": {"molecular_target": "T1, Tyrosine-protein phosphatase non-receptor type 22 (Homo sapiens, UniProt Q9Y2R2)", "T1 sequence (Q9Y2R2 whole entry)": "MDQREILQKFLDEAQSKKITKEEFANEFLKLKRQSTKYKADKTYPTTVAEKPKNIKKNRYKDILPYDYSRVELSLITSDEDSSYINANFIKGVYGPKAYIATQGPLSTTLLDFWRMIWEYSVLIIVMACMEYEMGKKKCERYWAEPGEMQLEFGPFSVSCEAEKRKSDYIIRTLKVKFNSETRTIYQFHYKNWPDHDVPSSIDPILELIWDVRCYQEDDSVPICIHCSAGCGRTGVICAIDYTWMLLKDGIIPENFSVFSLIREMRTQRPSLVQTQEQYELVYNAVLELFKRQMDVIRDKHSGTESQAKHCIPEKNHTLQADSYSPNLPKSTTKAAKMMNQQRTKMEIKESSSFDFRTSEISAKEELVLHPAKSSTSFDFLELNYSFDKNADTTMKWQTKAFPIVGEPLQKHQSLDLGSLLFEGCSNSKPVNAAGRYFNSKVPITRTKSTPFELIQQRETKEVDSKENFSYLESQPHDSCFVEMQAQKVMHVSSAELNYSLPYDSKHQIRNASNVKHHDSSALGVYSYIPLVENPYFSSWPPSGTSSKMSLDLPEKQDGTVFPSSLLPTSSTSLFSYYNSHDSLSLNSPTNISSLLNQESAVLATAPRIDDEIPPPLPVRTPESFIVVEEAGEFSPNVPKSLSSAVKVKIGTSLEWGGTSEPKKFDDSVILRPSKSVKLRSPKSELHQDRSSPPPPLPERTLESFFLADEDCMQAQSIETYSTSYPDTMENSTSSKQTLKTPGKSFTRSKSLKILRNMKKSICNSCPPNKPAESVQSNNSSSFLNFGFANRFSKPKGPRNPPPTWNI", "experiment": "SAR LYP1 Fluorescent Assay using pCAP substrate for In Vitro dose response studies - Set 4. [Related pubchem assays (depositor defined):AID1779, AID1784]", "assay_type": "functional"}, "[2]": {"molecular_target": "T1, Tyrosine-protein phosphatase non-receptor type 22", "experiment": "SAR LYP1 Fluorescent Assay using OMFP substrate for In Vitro dose response studies - Set 4. [Related pubchem assays (depositor defined):AID1779, AID1784, AID2140, AID2686]", "assay_type": "functional"}, "[3]": {"molecular_target": "Tyrosine-protein phosphatase non-receptor type 12 (Homo sapiens, UniProt Q05209)", "sequence (Q05209 whole entry)": "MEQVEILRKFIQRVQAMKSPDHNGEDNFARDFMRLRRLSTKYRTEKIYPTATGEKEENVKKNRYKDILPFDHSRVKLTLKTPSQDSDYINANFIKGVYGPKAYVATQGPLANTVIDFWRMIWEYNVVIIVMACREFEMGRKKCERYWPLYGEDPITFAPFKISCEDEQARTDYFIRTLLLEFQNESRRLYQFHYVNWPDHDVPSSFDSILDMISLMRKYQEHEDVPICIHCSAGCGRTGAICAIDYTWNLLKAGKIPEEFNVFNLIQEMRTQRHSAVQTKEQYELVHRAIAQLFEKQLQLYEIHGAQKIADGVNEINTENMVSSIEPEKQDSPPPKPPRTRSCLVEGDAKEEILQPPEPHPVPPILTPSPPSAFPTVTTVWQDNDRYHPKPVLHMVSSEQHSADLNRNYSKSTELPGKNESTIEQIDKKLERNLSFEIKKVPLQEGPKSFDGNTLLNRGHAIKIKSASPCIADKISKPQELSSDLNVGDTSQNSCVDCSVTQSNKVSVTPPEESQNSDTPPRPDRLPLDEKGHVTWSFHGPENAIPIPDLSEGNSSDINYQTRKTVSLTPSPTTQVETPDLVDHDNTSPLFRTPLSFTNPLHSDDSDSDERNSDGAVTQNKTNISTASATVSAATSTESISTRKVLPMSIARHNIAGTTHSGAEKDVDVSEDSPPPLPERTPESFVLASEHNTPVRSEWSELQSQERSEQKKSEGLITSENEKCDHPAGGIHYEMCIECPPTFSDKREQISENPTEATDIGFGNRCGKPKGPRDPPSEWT", "experiment": "SAR Selectivity Analysis of small molecule inhibitors of PEST using pCAP in a fluorescence assay. [Related pubchem assays (depositor defined):AID1779, AID1784, AID2135]", "assay_type": "functional"}, "Caspase-7": {"molecular_target": "Caspase-7 (Homo sapiens, UniProt P55210)", "sequence (P55210 24-198 limits assumed)": "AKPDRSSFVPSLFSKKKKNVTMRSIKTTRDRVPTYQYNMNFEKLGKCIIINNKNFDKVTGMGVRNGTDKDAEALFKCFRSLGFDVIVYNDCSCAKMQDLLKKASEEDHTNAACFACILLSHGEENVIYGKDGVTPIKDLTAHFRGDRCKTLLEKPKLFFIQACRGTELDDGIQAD", "sequence (P55210 207-303 limits assumed)": "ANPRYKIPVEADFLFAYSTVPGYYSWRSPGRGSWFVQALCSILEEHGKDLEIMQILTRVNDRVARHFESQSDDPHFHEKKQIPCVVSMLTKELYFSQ", "experiment": "activation of caspase-7 zymogen – biochemical, absorbance, counter-screen for procaspase-3 activator project, dose response (AID 489013)"}, "Caspase-3": {"molecular_target": "T2, Caspase-3 (Homo sapiens, UniProt P42574)", "T2 sequence (P42574 whole entry)": "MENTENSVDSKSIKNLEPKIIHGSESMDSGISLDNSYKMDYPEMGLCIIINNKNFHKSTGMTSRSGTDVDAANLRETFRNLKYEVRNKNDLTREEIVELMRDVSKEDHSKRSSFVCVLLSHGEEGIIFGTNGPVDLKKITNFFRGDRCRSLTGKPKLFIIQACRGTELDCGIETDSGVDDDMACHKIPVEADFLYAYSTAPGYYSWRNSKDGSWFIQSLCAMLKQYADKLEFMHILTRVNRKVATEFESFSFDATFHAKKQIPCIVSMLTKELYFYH", "experiment": "activation of caspase-3 zymogen – biochemical, absorbance, dose response (AID 489014)"}, "[4]": {"experiment": "Trypanosoma cruzi growth suppression in host cells – NIH3T3 host cells, beta-gal luminescence, confirmation (AID 2044);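 also: intracellular parasites grown in NIH/3T3 mouse fibroblasts as host cells; luminescent beta-galactosidase reporter signal from transgenic T. cruzi replicating inside host cells; inhibitors lower the luminescence signal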", "assay_type": "functional, cell-based"}, "[5]": {"experiment": "NIH3T3 cell viability loss – ATP luminescence, mouse fibroblasts, counter-screen, dose response (AID 2010);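 also: cells exposed to compound for about 90 hours before reading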", "assay_type": "functional, cell-based"}, "[6]": {"molecular_target": "T3, Delta-type opioid receptor (Homo sapiens, UniProt P41143)", "T3 sequence (P41143 whole entry)": "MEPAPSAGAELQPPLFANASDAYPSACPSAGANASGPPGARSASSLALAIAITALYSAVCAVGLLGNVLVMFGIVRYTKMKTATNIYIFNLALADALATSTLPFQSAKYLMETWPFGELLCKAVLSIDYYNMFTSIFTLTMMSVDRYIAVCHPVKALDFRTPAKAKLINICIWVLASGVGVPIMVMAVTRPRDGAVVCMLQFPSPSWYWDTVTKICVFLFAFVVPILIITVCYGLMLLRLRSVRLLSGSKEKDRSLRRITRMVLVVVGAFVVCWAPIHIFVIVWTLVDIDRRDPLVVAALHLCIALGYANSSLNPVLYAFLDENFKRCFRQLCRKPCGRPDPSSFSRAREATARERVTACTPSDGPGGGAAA", "experiment": "HTS Image-Based Screen for Antagonists of the DOR Receptor. [Related pubchem assays (depositor defined):AID1777, AID1785, AID1786, AID2133]", "assay_type": "functional"}, "[7]": {"molecular_target": "T4, Kappa-type opioid receptor (Homo sapiens, UniProt P41145)", "T4 sequence (P41145 whole entry)": "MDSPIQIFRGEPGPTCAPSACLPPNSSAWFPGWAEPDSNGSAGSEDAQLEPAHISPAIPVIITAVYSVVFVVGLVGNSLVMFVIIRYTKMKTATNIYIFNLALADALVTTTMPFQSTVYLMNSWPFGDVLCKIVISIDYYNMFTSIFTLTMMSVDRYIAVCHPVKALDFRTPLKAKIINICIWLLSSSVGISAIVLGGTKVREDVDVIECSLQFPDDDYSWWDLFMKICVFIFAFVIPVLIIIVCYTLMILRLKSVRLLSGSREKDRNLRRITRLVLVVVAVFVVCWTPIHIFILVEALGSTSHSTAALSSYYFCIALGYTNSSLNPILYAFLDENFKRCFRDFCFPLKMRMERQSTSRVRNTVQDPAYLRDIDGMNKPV", "experiment": "kappa opioid receptor blockers, image-based, SAR follow-up (AID 2348)", "assay_type": "functional"}, "Mu-type opioid receptor [8]": {"molecular_target": "T5, Mu-type opioid receptor (Homo sapiens, UniProt P35372)", "T5 sequence (P35372 whole entry)": "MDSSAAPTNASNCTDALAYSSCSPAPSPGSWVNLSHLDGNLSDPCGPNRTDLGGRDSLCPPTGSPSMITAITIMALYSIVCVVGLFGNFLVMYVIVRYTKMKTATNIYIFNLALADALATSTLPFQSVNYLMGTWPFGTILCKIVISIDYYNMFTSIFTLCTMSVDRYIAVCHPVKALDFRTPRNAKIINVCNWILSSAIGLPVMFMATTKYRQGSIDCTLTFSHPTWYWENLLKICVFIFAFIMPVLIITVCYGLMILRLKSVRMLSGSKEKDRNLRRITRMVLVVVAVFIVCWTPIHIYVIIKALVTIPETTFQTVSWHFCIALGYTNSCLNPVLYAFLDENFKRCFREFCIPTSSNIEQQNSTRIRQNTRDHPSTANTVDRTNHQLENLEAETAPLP", "experiment": "mu opioid receptor activators, image-based, SAR follow-up (AID 2352)", "assay_type": "functional"}, "[9]": {"molecular_target": "T3, Delta-type opioid receptor", "experiment": "HTS Image-Based Screen for Agonists of the DOR Receptor. [Related pubchem assays (depositor defined):AID1777, AID1786, AID2133]", "assay_type": "functional"}, "[10]": {"molecular_target": "T4, Kappa-type opioid receptor", "assay_type": "functional"}, "Mu-type opioid receptor [11]": {"molecular_target": "T5, Mu-type opioid receptor", "experiment": "HTS Image-Based Screen for Agonists of the MOR Receptor. [Related pubchem assays (depositor defined):AID1777, AID1785, AID1786, AID2133]", "assay_type": "functional"}, "[12]": {"molecular_target": "T3, Delta-type opioid receptor", "experiment": "delta opioid receptor blockers – image-based, SAR follow-up (AID 2357)", "assay_type": "functional"}, "[13]": {"molecular_target": "T3, Delta-type opioid receptor", "experiment": "DOR agonists, SAR follow-up, image-based (AID 2370)", "assay_type": "functional"}, "[14]": {"molecular_target": "T4, Kappa-type opioid receptor", "assay_type": "functional", "remark": "listed apart in the source"}, "Mu-type opioid receptor [15]": {"molecular_target": "T5, Mu-type opioid receptor", "experiment": "mu opioid receptor blockers – image-based, SAR follow-up (AID 2420);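 also: compounds added before stimulation of receptor with agonist DAMGO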", "assay_type": "functional"}, "[16]": {"experiment": "viability of uninfected HEp-2 cells – cell-based, HTS, cytotoxicity control for RSV inhibitor project, dose response (AID 2410)", "assay_type": "functional", "conditions": "human respiratory syncytial virus"}},
  "note": "The source made the active and inactive calls.",
  "data": [
    {"smiles": "CCOC(=O)COc1ccc(/C=N/NC(=O)c2ccc(-c3csc(Nc4ccc(Cl)cc4)n3)cc2)cc1", "values": [
      {"measurement": "IC50", "setting": "[1]", "result": "60.8 µM (active)"},
      {"measurement": "IC50", "setting": "[2]", "result": "89 µM (active)"},
      {"measurement": "IC50", "setting": "[3]", "result": "37.4 µM (active)"}
    ]},
    {"smiles": "Cc1ccc(C)c(N(CC(=O)Nc2ccc(-c3nc4ccc(C)cc4s3)cc2)S(C)(=O)=O)c1", "values": [
      {"measurement": "EC50", "setting": "Caspase-7", "result": "> 85.2 µM (inactive)"},
      {"measurement": "EC50", "setting": "Caspase-3", "result": "> 85.2 µM (inactive)"},
      {"measurement": "EC50", "setting": "[4]", "result": "2.78 µM (active)"},
      {"measurement": "EC50", "setting": "[5]", "result": "> 60 µM (inconclusive)"}
    ]},
    {"smiles": "Clc1cccc(CSc2nnc(-c3ccccn3)n2Cc2ccco2)c1", "values": [
      {"measurement": "IC50", "setting": "[6]", "result": "> 32 µM (inactive)"},
      {"measurement": "IC50", "setting": "[7]", "result": "> 32 µM (inactive)"},
      {"measurement": "EC50", "setting": "Mu-type opioid receptor [8]", "result": "> 32 µM (inactive)"},
      {"measurement": "EC50", "setting": "[9]", "result": "> 32 µM (inactive)"},
      {"measurement": "EC50", "setting": "[10]", "result": 5.6, "unit": "µM"},
      {"measurement": "EC50", "setting": "Mu-type opioid receptor [11]", "result": "> 32 µM (inactive)"},
      {"measurement": "IC50", "setting": "[12]", "result": "> 32 µM (inactive)"},
      {"measurement": "EC50", "setting": "[13]", "result": "> 32 µM (inactive)"},
      {"measurement": "EC50", "setting": "[14]", "result": 8.35, "unit": "µM"},
      {"measurement": "IC50", "setting": "Mu-type opioid receptor [15]", "result": "> 32 µM (inactive)"},
      {"measurement": "CC50", "setting": "[16]", "result": "15.1 µM (active)"}
    ]}
  ]
}
